From paper PMC3527569, “Anti-Inflammatory and Vasoprotective Activity of a Retroviral-Derived Peptide, Homologous to Human Endogenous Retroviruses: Endothelial Cell Effects” (PLoS ONE, 2012)
Entries after “also recorded” stand apart in the source; their conditions may differ. Where no end group is shown, it is not given here.

Legend:
[1] = tested on: inflammatory accumulation of monocytes/macrophages; experiment: Mouse NaIO4-induced inflammatory peritonitis model; type: in vivo, mouse (CD-1); details: monocyte/macrophage accumulation at 48 h; for Dose Achieving Maximum Inhibition (nmoles) / Dose Achieving Maximum Inhibition (µg): CD-1 mice, agent s.c. 24 h before i.p. NaIO4; for Maximum Inhibition (%): groups of five CD-1 mice, agent s.c. 24 h before i.p. NaIO4 (5 mM, 1.0 ml), one experiment; for IC50 (nmoles) / IC50 (µg): in vivo dose per mouse, s.c. 24 h before i.p. NaIO4
Method: Effects of test compounds on the inflammatory accumulation of monocytes/macrophages or neutrophils in vivo were determined using a mouse peritonitis model. Briefly, groups of five 6–8 week old CD-1 outbred mice (Charles River; Raleigh, NC) were injected intraperitoneally (i.p.) with 1.0 ml of a sterile inflammatory stimulus (NaIO4; 5 mM in sterile isotonic saline; Sigma; St. Louis, MO). This procedure results in a dramatic accumulation of neutrophils in the peritoneal cavity which peaks at 6–8 h post injection, followed by an accumulation of monocytes/macrophages which peaks at 48–72 h post injection. Mice were euthanized by CO2 asphyxiation at either 6 h (for neutrophils) or 48 h (for monocyte/macrophages), the peritoneal cavities lavaged with two 10-ml washes of heparinized (10 u/ml; Sigma; St. Louis, MO) HBSS containing 0.1% (w/v) BSA, the washes pooled, and total and differential cells counts determined for each pooled cell suspension. Each test material was evaluated in a group of five mice, each of which was injected subcutaneously in the thigh with 0.2 ml of test material in HBSS 24 h prior to the i.p. injection of the inflammatory stimulus.

carrageenan-induced DIC = experiment: Mouse carrageenan-induced DIC model, lethality; type: in vivo, mouse (CD-1); details: data not shown
Method: Groups of 10 male CD-1 mice were injected i.p. with 0.25 ml of either vehicle (PBS) or peptide in vehicle at varying times prior to the i.p. injection of 1.0 ml of carrageenan (0.45% [w/v] in PBS; Sigma). In experiments where serum cytokine levels were determined, groups of 5 mice were euthanized at 1-, 2-, 4-, 8-, and 24-h post injection of carrageenan, blood collected by cardiac puncture into heparinized syringes, and the resultant plasma stored at −80°C until assayed by ELISA. […] At 1-, 2-, 4-, and 24-h post injection of carrageenan, five mice from each group were euthanized and heparinized blood samples collected from the heart using heparinized syringes for subsequent determinations of WBC (white blood cell) counts, RBC (red blood cell) counts, or PLT (platelet) counts.

systolic blood pressure = experiment: SHR rat hypertension model (tail cuff); type: in vivo; details: 100 mg/kg orally (gavage), groups of 3 SHR rats, tail cuff, vs 0 h value
Method: As part of a general pharmacological screen, MN10021 was evaluated in a rat model of hypertension by MDS-PanLabs (Bothell, WA). […] Blood pressure measurements were made by tail cuff at 1, 2, and 4 h post administration of test compounds. A decrease of ≥10% of the baseline systolic blood pressure is considered significant in this assay.

[2] = qualitative ranking of the three peptides
dengue virus = experiment: Vascular leak in liver of mice injected with dengue virus; parameters: species or system mouse; details: 1 µg intraperitoneal; dengue virus i.v.; preliminary in vivo studies
[3] = tested on: nitrate in HUVEC supernatants; experiment: NO release (nitrate as nitrite) from HUVEC; type: cell-based, human; details: 50 µM peptide
Method: HUVEC were grown to 80–90% confluence in 12-well tissue culture plates using defined media provided by Cambrex and supplemented with 10% FBS. Triplicate wells were incubated with either media alone or media containing 50 µM of the indicated peptide. Supernatant samples were removed from each well at 6 h and 24 h post peptide addition and assayed for NO release as measured by the presence of nitrate (converted to nitrite) using a kit supplied by Oxford Biomedical Research (Rochester Hill, MI) according to the manufacturer's instructions.

[4] = tested on: endothelial nitric oxide synthase (eNOS) mRNA; experiment: RT-PCR of eNOS mRNA in HUVEC; type: cell-based, human; details: data not shown
Method: (§1) Cells were cultured with various concentrations of test materials, either with or without stimulus, for varying times. The cells were collected, washed and total RNA isolated using the RNeasy Mini Kit (Qiagen; Valencia, CA). Following isolation the RNA was treated with 7 units of DNase I according to the RNase-Free DNase Set (Qiagen; Valencia, CA) protocol. Using these procedures we usually obtained ∼50 µg of total RNA/10^7 cells. cDNA was prepared from the isolated mRNAs and RT-PCR performed on the target cytokines/chemokines/growth factors using appropriate primer pairs and a control primer pair for β-actin (all from R & D Systems; Minneapolis, MN). RT-PCR was generally performed for 30 cycles for β-actin and 35–45 cycles for iNOS and VEGF.

HUVEC = experiment: Staurosporine-induced apoptosis in HUVEC (Cell Death Detection ELISA); type: cell-based, human; details: for protection against staurosporine-induced apoptosis: 50 µM peptide 3 h before staurosporine (500 nM), measured 18 h after staurosporine (Figure 11B)
Method: Apoptosis was measured in HUVEC using the Cell Death Detection ELISA^PLUS kit (Roche Diagnostics; Indianapolis, IN) according to the manufacturer's instructions. This assay is based on a quantitative sandwich-enzyme-immunoassay using mouse monoclonal antibodies directed against both DNA and histones, respectively. It allows the specific determination of mono- and oligonucleosomes in the cytoplasmic fraction of cell lysates (apoptosis) and in the supernatant of dying cells (necrosis). The apoptotic index (AI) was calculated as
where treatment refers to use of a known apoptosis- or necrosis-inducing agent (staurosporine, TNF-α).

iNOS mRNA = iNOS mRNA induction in HUASMC; type: cell-based, human; details: compared with MN10021
Method: as §1

[5] = tested on: iNOS (inducible nitric oxide synthase) mRNA; experiment: RT-PCR of iNOS mRNA in HUVEC; type: cell-based, human; details: for induction of mRNA for iNOS in HUVEC: 50 µM peptide, 3 h, 37°C, quiescent HUVEC, RT-PCR
Method: as §1

inflammation [6] = tested on: inflammation; parameters: method as in earlier work; details: cited from earlier work
lymphocyte proliferation = tested on: lymphocyte proliferation; parameters: method as in PMID 1634759, PMID 1534759; details: cited from earlier work
[7] = tested on: human monocyte chemotactic responses; parameters: method as in PMID 1634759, PMID 1534759; details: cited from earlier work
inflammation [8] = tested on: inflammation; parameters: method as in earlier work; details: cited from earlier work; remark: listed apart in the source

Compound: CC(=O)Nc1ccc(O)cc1 [Acetaminophen, acetaminophen]
- Dose Achieving Maximum Inhibition (nmoles) [1]: 6614 nmol
- Dose Achieving Maximum Inhibition (µg) [1]: 1000 µg
- Maximum Inhibition (%) [1]: 95%
- IC50 (nmoles) [1]: 132 nmol
- IC50 (µg) [1]: 20 µg
- ability to protect mice in DIC model (carrageenan-induced DIC): no success

Compound: C[C@@H]1C[C@H]2[C@@H]3CCC4=CC(=O)C=C[C@]4(C)[C@@]3(F)[C@@H](O)C[C@]2(C)[C@@]1(O)C(=O)CO [Dexamethasone]
- Dose Achieving Maximum Inhibition (nmoles) [1]: 204 nmol
- Dose Achieving Maximum Inhibition (µg) [1]: 80 µg
- Maximum Inhibition (%) [1]: 75%
- ability to protect mice in DIC model (carrageenan-induced DIC): no success

Compound: O=C(O)Cc1ccccc1Nc1c(Cl)cccc1Cl [Diclofenac, diclofenac]
- Dose Achieving Maximum Inhibition (nmoles) [1]: 314 nmol
- Dose Achieving Maximum Inhibition (µg) [1]: 100 µg
- Maximum Inhibition (%) [1]: 90%
- IC50 (nmoles) [1]: 16 nmol
- IC50 (µg) [1]: 5 µg
- ability to protect mice in DIC model (carrageenan-induced DIC): no success

Compound: C[C@](N)(Cc1ccc(O)c(O)c1)C(=O)O [L-methyldopa, reference compound]
- decrease in blood pressure at 1 h (systolic blood pressure): 16%
- decrease in blood pressure at 2 h (systolic blood pressure): 23%
- decrease in blood pressure at 4 h (systolic blood pressure): 28%

Compound: N=C(N)NN [aminoguanidine]
- ability to protect mice in DIC model (carrageenan-induced DIC): no success

Compound: COc1ccc2c(c1)c(CC(=O)O)c(C)n2C(=O)c1ccc(Cl)cc1 [indomethacin]
- ability to protect mice in DIC model (carrageenan-induced DIC): no success

Compound: COc1ccc2cc([C@H](C)C(=O)O)ccc2c1 [naproxen]
- ability to protect mice in DIC model (carrageenan-induced DIC): no success

Compound: CCN(CC)CCCC(C)Nc1c2ccc(Cl)cc2nc2ccc(OC)cc12 (stereo not shown) [quinacrine]
- ability to protect mice in DIC model (carrageenan-induced DIC): no success

Compound: CN[C@@H]1C[C@H]2O[C@@](C)([C@@H]1OC)n1c3ccccc3c3c4c(c5c6ccccc6n2c5c31)C(=O)NC4 [staurosporine]
- ability to protect mice in DIC model (carrageenan-induced DIC): no success

Compound: Ac-GLDLLFLK-NH2 [DUK0005]
- relative solubility among DUK0004, DUK0005, DUK0006 [2]: intermediate
- effect on vascular leak in the liver of dengue virus-injected mice (dengue virus): inhibit the vascular leak
- nitrate release (as measured by nitrite assay) from HUVEC ([3]; 6 h or ON): induced nitrate release
- effect on expression of mRNA for eNOS [4]: Neither MN10021 nor DUK0005 affected
- protection against staurosporine-induced apoptosis (HUVEC): significant protection
- effect of L-NAME pretreatment on protective effect against staurosporine-induced apoptosis (HUVEC; 2 mM L-NAME 5 h, then 50 µM peptide 3 h, staurosporine 500 nM ON (Figure 12)): no effect
- maximal protection against staurosporine-induced apoptosis (HUVEC; peptide added 3 h before staurosporine, up to 50 µM peptide, quadruplicate wells (Figure 10A, 10C)): ~40%
- induction of iNOS mRNA in HUASMC (iNOS mRNA): as effective as MN10021
- induction of mRNA for iNOS in HUVEC [5]: most effective; also recorded: as effective as MN10021

Compound: Ac-GLDLLYLK-NH2 [DUK0007]
- nitrate release, percent of MN10021 ([3]; 6 h and ON incubations): ≤ 25%
- protection against staurosporine-induced apoptosis (HUVEC): no protective effective
- induction of mRNA for iNOS in HUVEC [5]: does not induce iNOS
- effect on induction of iNOS by DUK005 when combined 1:1 ([5]; HUVEC, data not shown): inhibits the induction of iNOS

Compound: GLDLLFLK [DUK0001]
- induction of mRNA for iNOS in HUVEC [5]: weak induction

Compound: GLDLLFLK-NH2 [DUK0006]
- relative solubility among DUK0004, DUK0005, DUK0006 [2]: most soluble
- induction of mRNA for iNOS in HUVEC [5]: comparable

Compound: LDLLFL [hexapeptide corresponding to the central six amino acids of DUK0005, studied by other investigators]
- anti-inflammatory activity in mice (inflammation [6]): did not find this hexapeptide to be anti-inflammatory
- effect on ligand (CD3) and interleukin-2 (IL-2)-induced lymphocyte proliferation (lymphocyte proliferation): inhibited
- effect on in vitro human monocyte chemotactic responses [7]: inhibited
- anti-inflammatory activity in guinea pigs (inflammation [8]): did not find this hexapeptide to be anti-inflammatory

Compound: acetyl-GLDLLFLK-acetyl [DUK0004]
- relative solubility among DUK0004, DUK0005, DUK0006 [2]: least soluble
- induction of mRNA for iNOS in HUVEC [5]: comparable
